Active and inactive are the calls of the source.
How the values were obtained:
3T3-L1 [1] = test: Induction of cell cycle arrest in MDI-cocktail differentiated mouse 3T3-L1 pre-adipocyte cells assessed as reduction in cyclin D3 protein expression at 5 uM measured after 16 to 24 hrs by immunoblotting analysis; assay type: functional, cell-based; conditions: time 16-24 hrs
3T3-L1 [2] = test: Induction of proton leak during early phase in MDI-cocktail differentiated mouse 3T3-L1 pre-adipocyte cells 5 uM incubated for 72 hrs by Seahorse XFp flux analyzer; assay type: functional, cell-based
3T3-L1 [3] = test: Induction of ATP production during early phase in MDI-cocktail differentiated mouse 3T3-L1 pre-adipocyte cells 5 uM incubated for 72 hrs by Seahorse XFp flux analyzer; assay type: functional, cell-based
3T3-L1 [4] = test: Inhibition of MDI-cocktail induced adipogenic differentiation in mouse 3T3-L1 pre-adipocyte cells assessed as reduction in FASN protein expression at 0.5 to 5 uM by Western blot analysis; assay type: functional, cell-based; conditions: dose 0.5-5 µM
C3H 10T1/2 [5] = test: Inhibition of MDI-cocktail induced adipogenic differentiation in mouse C3H 10T1/2 cells assessed as inhibition of lipid accumulation by Oil Red O staining based microscopic analysis; assay type: functional, cell-based; conditions: dose 0.5-20 µM
Syrian golden hamster [6] = test: Anti-obesity activity in high-fat diet induced Syrian golden hamster model assessed as rescue of normal eWAT weight at 25 to 50 mg/kg, po administered for 7 days; assay type: functional, organism-based; conditions: Mesocricetus auratus, dose 25-50 mg/kg, time 7.0 day
3T3-L1 [7] = test: Inhibition of MDI-cocktail induced adipogenic differentiation in mouse 3T3-L1 pre-adipocyte cells assessed as increase in ACC phosphorylation at Ser79 residue by Western blot analysis; assay type: functional, cell-based; conditions: dose 0.5-5 µM
3T3-L1 [8] = test: Induction of basal respiration during early phase in MDI-cocktail differentiated mouse 3T3-L1 pre-adipocyte cells 5 uM incubated for 72 hrs by Seahorse XFp flux analyzer; assay type: functional, cell-based
3T3-L1 [9] = test: Anti-adipogenic activity in MDI-cocktail differentiated mouse 3T3-L1 pre-adipocyte cells assessed as reduction in FABP4 protein expression at 5 uM measured for 3 to 7 days by immunoblotting analysis; assay type: functional, cell-based; conditions: time 3-7 day
3T3-L1 [10] = test: Activation of AMPK pathway in mouse 3T3-L1 mature adipocyte cells assessed as reversal of 6-(4-(2-(piperidin-1-yl)ethoxy)phenyl)-3-(pyridin-4yl)pyrazolo[1,5-a]pyrimidine induced AMPK inhibition at 5 uM incubated for 24 hrs by immunoblotting analysis; assay type: cell-based; conditions: filed as activator
Syrian golden hamster [11] = test: Hepatoprotective activity in high-fat diet induced Syrian golden hamster model assessed as reduction in serum ALT level at 25 to 50 mg/kg, po administered for 7 days; assay type: functional, organism-based; conditions: Mesocricetus auratus, dose 25-50 mg/kg, time 7.0 day
3T3-L1 [12] = test: Anti-adipogenic activity in MDI-cocktail differentiated mouse 3T3-L1 pre-adipocyte cells assessed as reduction in adipogenic differentiation at 5 uM measured after 0 to 5 days by Oil Red O staining based microscopic analysis; assay type: functional, cell-based; conditions: time 0-5 day
Syrian golden hamster [13] = test: Anti-obesity activity in high-fat diet induced Syrian golden hamster model assessed as reduction in lean mass at 50 mg/kg, po administered for 7 days by 1H NMR spectroscopy-based Echo MRI system; assay type: functional, organism-based; conditions: Mesocricetus auratus, time 7.0 day
C3H 10T1/2 [14] = test: Inhibition of MDI-cocktail induced adipogenic differentiation in mouse C3H 10T1/2 cells assessed as reduction in lipid bound stain absorbance at 0.5 to 25 uM by Oil Red O staining based microscopic analysis; assay type: functional, cell-based; conditions: dose 0.5-25 µM
3T3-L1 [15] = test: Upregulation of CI-NDUFB8 protein expression in mouse 3T3-L1 mature adipocytes at 1 to 5 uM incubated for 24 hrs by Western blot analysis; assay type: functional, cell-based; conditions: dose 1-5 µM

Cc1ccc(-c2cnc(-c3ccc[n+](Cc4cccc(C)c4)c3)o2)cc1.[Br-]
active: Activity (3T3-L1 [1]) | Activity (3T3-L1 [2]) | Activity (3T3-L1 [3]) | inhibition (3T3-L1 [4]) | inhibition (C3H 10T1/2 [5]) | Activity (Syrian golden hamster [6]) | inhibition (3T3-L1 [7]) Dose-Dependent Effect | Activity (3T3-L1 [8]) | Activity (3T3-L1 [9]) | Activity (3T3-L1 [10]) | Activity (Syrian golden hamster [11]) | Activity (3T3-L1 [12]) | Activity (Syrian golden hamster [13]) | inhibition (C3H 10T1/2 [14]) | Activity (3T3-L1 [15])
